Measurements from patent US7041687B2, “Indazole compounds useful as protein kinase inhibitors” (Vertex Pharmaceuticals Incorporated, priority 2002, dated 2006).
pKi: −log10 of the molar value.

What was measured:
Assay type in all cases: biochemical
AKT-3 = AKT-3 (Homo sapiens, UniProt Q9Y243); test: AKT-3 inhibition assay (standard coupled enzyme assay); details: 170 μM ATP, 200 μM peptide, 45 nM AKT, 30° C.
Description: Assays were carried out in a mixture of 100 mM HEPES 7.5, 10 mM MgCl2, 25 mM NaCl, 1 mM DTT and 3% DMSO. Final substrate concentrations in the assay were 170 μM ATP (Sigma Chemicals) and 200 μM peptide (RPRAATF, American Peptide, Sunnyvale, Calif.). Assays were carried out at 30° C. and 45 nM AKT. Final concentrations of the components of the coupled enzyme system were 2.5 mM phosphoenolpyruvate, 300 μM NADH, 30 μg/ML pyruvate kinase and 10 μg/ml lactate dehydrogenase.
An assay stock buffer solution was prepared containing all of the reagents listed above, with the exception of AKT, DTT, and the test compound of interest. 55 μl of the stock solution was placed in a 96 well plate followed by addition of 2 μl of 1 mM DMSO stock containing the test compound (final compound concentration 30 μM). The plate was pre-incubated for about 10 minutes at 30° C. and the reaction initiated by addition of 10 μl of enzyme (final concentration 45 nM) and 1 mM DTF. Rates of reaction were obtained using a Molecular Devices SpectraMax Plus plate reader over a 15 minute read time at 30° C.

PDK-1 = target: T1, PDK-1 (Homo sapiens, UniProt O15530); test: PDK-1 inhibition assay (radioactive-phosphate incorporation); details: 40 μM ATP, 65 μM PDKtide, 25 nM PDK-1, 30° C.
T1 sequence (O15530 1-556): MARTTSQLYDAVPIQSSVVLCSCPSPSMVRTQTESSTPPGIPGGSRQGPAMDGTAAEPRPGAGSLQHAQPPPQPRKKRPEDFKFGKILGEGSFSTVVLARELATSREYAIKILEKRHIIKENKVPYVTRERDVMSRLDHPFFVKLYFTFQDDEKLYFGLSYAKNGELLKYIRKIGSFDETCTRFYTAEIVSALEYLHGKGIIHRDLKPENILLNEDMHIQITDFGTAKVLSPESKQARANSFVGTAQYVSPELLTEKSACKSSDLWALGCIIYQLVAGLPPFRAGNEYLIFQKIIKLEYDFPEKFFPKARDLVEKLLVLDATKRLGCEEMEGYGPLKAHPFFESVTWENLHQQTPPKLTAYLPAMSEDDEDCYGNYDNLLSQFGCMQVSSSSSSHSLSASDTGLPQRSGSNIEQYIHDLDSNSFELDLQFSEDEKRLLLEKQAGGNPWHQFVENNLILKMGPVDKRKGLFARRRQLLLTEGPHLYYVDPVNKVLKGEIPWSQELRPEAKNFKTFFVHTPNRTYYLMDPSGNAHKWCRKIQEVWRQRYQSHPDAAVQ

PKA = PKA (Homo sapiens, UniProt P17612); test: PKA inhibition assay (standard coupled enzyme assay); details: 50 μM ATP, 80 μM Kemptide, 18 nM PKA, 30° C.
Description: Compounds were screened for their ability to inhibit PKA using a standard coupled enzyme assay (Fox et al., Protein Sci., (1998) 7, 2249). Assays were carried out in a mixture of 100 mM HEPES 7.5, 10 mM MgCl2, 25 mM NaCl, 1 mM DTT and 3% DMSO. Final substrate concentrations in the assay were 50 μM ATP (Sigma Chemicals) and 80 μM peptide (Kemptide, American Peptide, Sunnyvale, Calif.). Assays were carried out at 30° C. and 18 nM PKA. Final concentrations of the components of the coupled enzyme system were 2.5 mM phosphoenolpyruvate, 300 μM NADH, 30 μg/ml pyruvate kinase and 10 μg/ml lactate dehydrogenase.
An assay stock buffer solution was prepared containing all of the reagents listed above, with the exception of ATP, and the test compound of interest. 55 μl of the stock solution was placed in a 96 well plate followed by addition of 2 μl of DMSO stock containing serial dilutions of the test compound (typically starting from a final concentration of 5 μM). The plate was preincubated for 10 minutes at 30° C. and the reaction initiated by addition of 5 μl of ATP (final concentration 50 μM). Initial reaction rates were determined with a Molecular Devices SpectraMax Plus plate reader over a 15 minute time course. IC50 and Ki data were calculated from non-linear regression analysis using the Prism software package (GraphPad Prism version 3.0a for Macintosh, GraphPad Software, San Diego Calif., USA).

Chain of AKT-3 (Q9Y243 whole entry): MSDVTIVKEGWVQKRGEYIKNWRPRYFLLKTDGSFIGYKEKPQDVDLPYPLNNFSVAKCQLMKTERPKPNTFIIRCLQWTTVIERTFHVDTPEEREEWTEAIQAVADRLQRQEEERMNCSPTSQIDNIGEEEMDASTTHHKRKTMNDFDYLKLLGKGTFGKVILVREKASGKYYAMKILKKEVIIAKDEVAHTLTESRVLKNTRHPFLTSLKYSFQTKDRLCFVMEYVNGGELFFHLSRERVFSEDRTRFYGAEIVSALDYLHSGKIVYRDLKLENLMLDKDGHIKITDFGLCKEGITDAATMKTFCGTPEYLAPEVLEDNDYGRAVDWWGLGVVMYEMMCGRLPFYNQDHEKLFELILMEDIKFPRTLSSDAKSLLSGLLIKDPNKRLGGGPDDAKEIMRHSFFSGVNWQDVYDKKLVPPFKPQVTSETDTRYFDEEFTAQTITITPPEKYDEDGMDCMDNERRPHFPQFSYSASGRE

Row | SMILES | pKi (AKT-3) | pKi (PDK-1) | pKi (PKA)
1 | NC(C(=O)Nc1ccc2[nH]ncc2c1)c1ccc(Cl)c(Cl)c1 (stereo not drawn) [Compound I-54] | 5.00 to 6.00 | < 5.52 | > 6.00
2 | NCCNC(C(=O)Nc1ccc2[nH]ncc2c1)c1cccc(Cl)c1 (stereo not drawn) [Compound I-59, 2-(2-Amino-ethylamino)-2-(3-chloro-phenyl)-N-(1H-indazol-5-yl)-acetamide] | > 6.00 | – | > 6.00
3 | CNCCCNC(C(=O)Nc1ccc2[nH]ncc2c1)c1cccc(Cl)c1 (stereo not drawn) [Compound I-67] | > 6.00 | – | > 6.00
4 | NCCNC(C(=O)Nc1ccc2[nH]ncc2c1)c1ccc2ccccc2c1 (stereo not drawn) [Compound I-73] | > 6.00 | – | > 6.00
5 | Cc1n[nH]c2ccc(NC(=O)[C@H](O)c3cccc(Cl)c3)cc12 [Compound I-76] | 5.00 to 6.00 | – | > 6.00
6 | Cc1n[nH]c2ccc(NC(=O)[C@H](O)c3ccc(F)c(Cl)c3)cc12 [Compound I-77] | 5.00 to 6.00 | – | > 6.00
7 | O=C(Nc1ccc2[nH]nc(Cl)c2c1)[C@H](O)c1cccc(Cl)c1 [Compound I-78] | 5.00 to 6.00 | – | > 6.00
8 | NCC(C(=O)Nc1ccc2[nH]ncc2c1)c1cccc(Cl)c1 (stereo not drawn) [Compound I-97] | > 6.00 | – | > 6.00
9 | NCCC(C(=O)Nc1ccc2[nH]ncc2c1)c1ccccc1 (stereo not drawn) [Compound I-98] | > 6.00 | 5.52 to 6.00 | > 6.00
10 | NCC(C(=O)Nc1ccc2[nH]ncc2c1)c1ccc(Cl)c(Cl)c1 (stereo not drawn) [Compound I-99] | > 6.00 | < 5.52 | > 6.00
11 | NCCC(C(=O)Nc1ccc2[nH]ncc2c1)c1cccc(Cl)c1 (stereo not drawn) [Compound I-100] | > 6.00 | > 6.00 | > 6.00
12 | NCCC(C(=O)Nc1ccc2[nH]ncc2c1)c1cccc(Cl)c1F (stereo not drawn) [Compound I-101] | > 6.00 | 5.52 to 6.00 | > 6.00
13 | NCCC(C(=O)Nc1ccc2[nH]ncc2c1)c1ccc2ccccc2c1 (stereo not drawn) [Compound I-102] | > 6.00 | < 5.52 | > 6.00
14 | NCCC(C(=O)Nc1ccc2[nH]ncc2c1)c1ccc(F)c(C(F)(F)F)c1 (stereo not drawn) [Compound I-103] | > 6.00 | – | > 6.00
15 | NCCC(C(=O)Nc1ccc2[nH]ncc2c1)c1cccc(C(F)(F)F)c1 (stereo not drawn) [Compound I-104] | > 6.00 | – | > 6.00
16 | NCCC(C(=O)Nc1ccc2[nH]ncc2c1)c1cc(C(F)(F)F)cc(C(F)(F)F)c1 (stereo not drawn) [Compound I-105] | > 6.00 | < 5.52 | > 6.00
17 | NCCC(C(=O)Nc1ccc2[nH]ncc2c1)c1cccc(Cl)c1Cl (stereo not drawn) [Compound I-106] | > 6.00 | > 6.00 | > 6.00
18 | NCCC(C(=O)Nc1ccc2[nH]ncc2c1)c1cccc(N)c1 (stereo not drawn) [Compound I-107] | 5.00 to 6.00 | 5.52 to 6.00 | > 6.00
19 | CSc1cccc(C(CCN)C(=O)Nc2ccc3[nH]ncc3c2)c1 (stereo not drawn) [Compound I-108] | > 6.00 | 5.52 to 6.00 | > 6.00
20 | NCCC(C(=O)Nc1ccc2[nH]ncc2c1)c1c(F)ccc(Cl)c1F (stereo not drawn) [Compound I-109] | > 6.00 | > 6.00 | > 6.00
21 | NCCC(C(=O)Nc1ccc2[nH]ncc2c1)c1cccc(Br)c1 (stereo not drawn) [Compound I-110] | > 6.00 | > 6.00 | > 6.00
22 | COc1ccccc1C(CCN)C(=O)Nc1ccc2[nH]ncc2c1 (stereo not drawn) [Compound I-113] | 5.00 to 6.00 | < 5.52 | > 6.00
23 | Cc1n[nH]c2ccc(NC(=O)C(CCN)c3cccc(Cl)c3F)cc12 (stereo not drawn) [Compound I-116] | > 6.00 | – | > 6.00
24 | Cc1n[nH]c2ccc(NC(=O)C(CCN)c3ccc(Cl)c(Cl)c3)cc12 (stereo not drawn) [Compound I-117] | > 6.00 | > 6.00 | > 6.00
25 | CCc1n[nH]c2ccc(NC(=O)C(CCN)c3ccc(Cl)c(Cl)c3)cc12 (stereo not drawn) [Compound I-118] | > 6.00 | 5.52 to 6.00 | > 6.00
26 | NCCC(C(=O)Nc1ccc2[nH]nc(-c3ccccc3)c2c1)c1ccc(Cl)c(Cl)c1 (stereo not drawn) [Compound I-119] | > 6.00 | > 6.00 | > 6.00

Row | SMILES | pKi (AKT-3) | pKi (PDK-1) | pKi (PKA)
27 | Cc1n[nH]c2ccc(NC(=O)C(CCN)c3cccc(Cl)c3Cl)cc12 (stereo not drawn) [Compound I-120] | > 6.00 | > 6.00 | > 6.00
28 | NCCC(C(=O)Nc1ccc2[nH]nc(Cl)c2c1)c1ccc(Cl)c(Cl)c1 (stereo not drawn) [Compound I-121] | > 6.00 | > 6.00 | > 6.00
29 | NCCC(C(=O)Nc1ccc2[nH]nc(Br)c2c1)c1ccc(Cl)c(Cl)c1 (stereo not drawn) [Compound I-122] | > 6.00 | 5.52 to 6.00 | > 6.00
30 | NCCC(C(=O)Nc1ccc2[nH]nc(CCc3ccccc3)c2c1)c1ccc(Cl)c(Cl)c1 (stereo not drawn) [Compound I-123] | 5.00 to 6.00 | > 6.00 | > 6.00
31 | C#Cc1n[nH]c2ccc(NC(=O)C(CCN)c3ccc(Cl)c(Cl)c3)cc12 (stereo not drawn) [Compound I-124] | > 6.00 | 5.52 to 6.00 | > 6.00
32 | NCCC(C(=O)Nc1cc(Cl)c2[nH]ncc2c1)c1ccc(Cl)c(Cl)c1 (stereo not drawn) [Compound I-143] | > 6.00 | – | > 6.00
33 | NCCC(C(=O)Nc1cc(Br)c2[nH]ncc2c1)c1ccc(Cl)c(Cl)c1 (stereo not drawn) [Compound I-144] | > 6.00 | – | > 6.00
34 | NCCC(C(=O)Nc1ccc2[nH]ncc2c1)c1cc(C(F)(F)F)cc(Cl)n1 (stereo not drawn) [Compound I-149] | > 6.00 | – | > 6.00
35 | C#Cc1cccc(C(=O)Nc2n[nH]c3ccc(NC(=O)C(CCN)c4ccc(Cl)c(Cl)c4)cc23)c1 (stereo not drawn) [Compound I-205] | > 6.00 | – | > 6.00
36 | NCCC(C(=O)Nc1ccc2[nH]nc(NC(=O)c3cccc([N+](=O)[O-])c3)c2c1)c1ccc(Cl)c(Cl)c1 (stereo not drawn) [Compound I-208] | > 6.00 | – | > 6.00
37 | CNc1cccc(C(=O)Nc2n[nH]c3ccc(NC(=O)C(CCN)c4ccc(Cl)c(Cl)c4)cc23)c1 (stereo not drawn) [Compound I-209] | > 6.00 | – | > 6.00
38 | CCNc1cccc(C(=O)Nc2n[nH]c3ccc(NC(=O)C(CCN)c4ccc(Cl)c(Cl)c4)cc23)c1 (stereo not drawn) [Compound I-210] | > 6.00 | – | > 6.00
39 | NCCC(C(=O)Nc1ccc2[nH]nc(-c3cccc(C(F)(F)F)c3)c2c1)c1ccccc1 (stereo not drawn) [Compound I-230] | – | > 6.00 | > 6.00
40 | NCCC(C(=O)Nc1ccc2[nH]nc(-c3ccc(C(=O)O)cc3)c2c1)c1ccccc1 (stereo not drawn) [Compound I-237] | – | > 6.00 | > 6.00
41 | NCCC(C(=O)Nc1ccc2[nH]nc(-c3cccc(F)c3)c2c1)c1ccccc1 (stereo not drawn) [Compound I-240] | – | > 6.00 | > 6.00
42 | NC[C@H](C(=O)Nc1ccc2[nH]ncc2c1)c1ccc(Cl)c(Cl)c1 [Compound I-243] | > 6.00 | – | > 6.00
43 | Cc1n[nH]c2ccc(NC(=O)C(CN)c3ccc(Cl)s3)cc12 (stereo not drawn) [Compound I-245] | > 6.00 | – | > 6.00
44 | Cc1ccc(-c2n[nH]c3ccc(NC(=O)C(CCN)c4ccccc4)cc23)cc1 (stereo not drawn) [Compound I-249] | – | > 6.00 | > 6.00
45 | NCCC(C(=O)Nc1ccc2[nH]nc(-c3cccc(F)c3)c2c1)c1ccc(Cl)c(Cl)c1 (stereo not drawn) [Compound I-252] | > 6.00 | – | > 6.00
46 | NCCC(C(=O)Nc1ccc2[nH]nc(-c3cccc(CN)c3)c2c1)c1ccccc1 (stereo not drawn) [Compound I-260] | – | > 6.00 | > 6.00
47 | NCCC(C(=O)Nc1ccc2[nH]nc(-c3ccc(-c4nn[nH]n4)cc3)c2c1)c1ccccc1 (stereo not drawn) [Compound I-261] | – | > 6.00 | > 6.00
48 | NCC[C@H](C(=O)Nc1ccc2[nH]nc(-c3ccc(C(=O)O)cc3)c2c1)c1ccccc1 [Compound I-263] | – | > 6.00 | > 6.00
49 | Cc1n[nH]c2ccc(NC(=O)C(CCN)c3ccccc3F)cc12 (stereo not drawn) [Compound I-1026] | – | > 6.00 | > 6.00
50 | Cc1n[nH]c2ccc(NC(=O)[C@@H](CCN)c3ccccc3)cc12 [Compound I-1033] | – | < 5.52 | > 6.00
51 | Cc1n[nH]c2ccc(NC(=O)[C@H](CCN)c3ccccc3)cc12 [Compound I-1034] | – | > 6.00 | > 6.00
